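Test compounds were applied to cells in 96-well plates for 48 hours at 5 doses. GI50 marks 50% less growth. At the TGI there is no net growth.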 Bounds are passed on as bounds.

Among the test systems are BT-549 breast; HT29 colon; SNB-19 CNS; SN12C renal; CCRF-CEM leukemia; MALME-3M melanoma; OVCAR-5 ovarian; HCT-116 colon; NCI-H23 lung; NCI/ADR-RES ovarian.
Assay in all cases: DTP human tumour cell line panel, 48 h

Take `O=C(Nc1ccc(Br)cc1F)c1cc(F)ccc1O`: the concentration for 50% growth inhibition (GI50) in the experiment on BT-549 breast was 0.356 µM; in the experiment on HT29 colon, 3.19 µM; with SNB-19 CNS, 0.419 µM; with SN12C renal, 0.366 µM; in the experiment with CCRF-CEM leukemia it was 2.4 µM; with MALME-3M melanoma, 0.335 µM. The GI50 with OVCAR-5 ovarian was 3.85 µM; in the experiment on HCT-116 colon, 0.44 µM; with NCI-H23 lung, 0.386 µM; with NCI/ADR-RES ovarian it was 0.533 µM. Also, the total growth inhibition concentration (TGI) in the experiment on BT-549 breast is 1.4 µM; in the experiment with HT29 colon it was more than 36.7 µM; in the experiment on SNB-19 CNS it was more than 100 µM; in the experiment with SN12C renal, 2.92 µM; in the experiment with CCRF-CEM leukemia, 13.9 µM; in the experiment on MALME-3M melanoma it was 1.53 µM. Further, the TGI with OVCAR-5 ovarian is more than 100 µM; in the experiment with HCT-116 colon it was 1.96 µM; in the experiment on NCI-H23 lung it was 3.15 µM; with NCI/ADR-RES ovarian, 5.4 µM.

With `CCN1CCN(C(=O)[C@@]2(C)CC[C@]3(C)CC[C@]4(C)C(=CC(=O)[C@@H]5[C@@]6(C)CC[C@H](OC7C[C@@H](O)[C@@H](O)C(C)O7)C(C)(C)[C@@H]6CC[C@]54C)[C@@H]3C2)CC1` (stereo not given in full), the GI50 with BT-549 breast was 5.84 µM; with HT29 colon, 1.08 µM; with SNB-19 CNS it was 2.26 µM; in the experiment on SN12C renal it was 0.896 µM; in the experiment with CCRF-CEM leukemia, 1.52 µM; in the experiment on MALME-3M melanoma it was 0.917 µM. Moreover, the GI50 in the experiment on OVCAR-5 ovarian was 1.19 µM; in the experiment with HCT-116 colon, 1.65 µM; in the experiment with NCI-H23 lung, 2.36 µM; in the experiment on NCI/ADR-RES ovarian, 2.53 µM. Besides, the TGI with BT-549 breast came to 13 µM; in the experiment with HT29 colon it was 2.59 µM; in the experiment on SNB-19 CNS, 8.57 µM; in the experiment with SN12C renal, 1.83 µM; in the experiment with CCRF-CEM leukemia, 50 µM; in the experiment with MALME-3M melanoma, 2.05 µM. For the same molecule, the total growth inhibition concentration (TGI) turned out to be 3.12 µM in the experiment on OVCAR-5 ovarian, 5.74 µM in the experiment on HCT-116 colon, 9.57 µM in the experiment with NCI-H23 lung and 12.9 µM in the experiment on NCI/ADR-RES ovarian.

With `C/C=C(\C)C(=O)O[C@H]1C=CC(=O)O[C@H]1CCC(=O)[C@H](C)O`, the GI50 is 19 µM in the experiment with BT-549 breast; 8.61 µM with HT29 colon; 25.7 µM in the experiment on SNB-19 CNS; 18.5 µM in the experiment with SN12C renal; 0.014 µM in the experiment on CCRF-CEM leukemia; 15.5 µM with MALME-3M melanoma. Also, the GI50 in the experiment with OVCAR-5 ovarian was 22.4 µM; with HCT-116 colon, 2.87 µM; with NCI-H23 lung it was 20.5 µM; with NCI/ADR-RES ovarian it was 21.1 µM. The total growth inhibition concentration (TGI) stood at 36.8 µM in the experiment with BT-549 breast; 23.5 µM in the experiment on HT29 colon; 83.5 µM with SNB-19 CNS; 46.9 µM in the experiment with SN12C renal; 9.1 µM with CCRF-CEM leukemia; 32.1 µM with MALME-3M melanoma. In addition, the concentration for total growth inhibition (TGI) in the experiment on OVCAR-5 ovarian worked out at 50.8 µM; with HCT-116 colon, 11.2 µM; with NCI-H23 lung, 43.9 µM; with NCI/ADR-RES ovarian, 56.1 µM.

Turning to `N=C(N)C1CN(CCc2c[nH]c3ccccc23)C(=O)NC1=O` (stereo not given), the TGI with BT-549 breast, in the experiment with HT29 colon, in the experiment on SNB-19 CNS, with SN12C renal, in the experiment with CCRF-CEM leukemia and with MALME-3M melanoma was more than 100 µM in each case. The TGI in the experiment on OVCAR-5 ovarian, in the experiment with HCT-116 colon, in the experiment on NCI-H23 lung and in the experiment with NCI/ADR-RES ovarian was more than 100 µM in each case.

Consider `CC1(C)S[C@@H]2[C@H](NC(=O)C3(N)CCCCC3)C(=O)N2[C@H]1C(=O)O`, for which the concentration for total growth inhibition (TGI) in the experiment on BT-549 breast, in the experiment with HT29 colon, with SNB-19 CNS, with SN12C renal, with CCRF-CEM leukemia and in the experiment on MALME-3M melanoma was more than 100 µM throughout. Also, the TGI with OVCAR-5 ovarian, in the experiment on HCT-116 colon, in the experiment on NCI-H23 lung and in the experiment on NCI/ADR-RES ovarian was more than 100 µM each time.

As to `N#Cc1c(NC(=O)NCc2ccccc2)sc2c1CCCCC2`, the GI50 was 0.923 µM in the experiment on BT-549 breast; 0.398 µM in the experiment with HT29 colon; 0.588 µM in the experiment with SNB-19 CNS; 0.682 µM with SN12C renal; 0.357 µM in the experiment on CCRF-CEM leukemia; 0.524 µM in the experiment on MALME-3M melanoma. The GI50 in the experiment with OVCAR-5 ovarian is 2.05 µM; with HCT-116 colon, 0.528 µM; with NCI-H23 lung it was 0.695 µM; with NCI/ADR-RES ovarian it was 0.42 µM. The concentration for total growth inhibition (TGI) in the experiment with BT-549 breast, in the experiment on HT29 colon, in the experiment on SNB-19 CNS, in the experiment with SN12C renal, in the experiment on CCRF-CEM leukemia and in the experiment with MALME-3M melanoma was more than 100 µM each time. In addition, the TGI in the experiment with OVCAR-5 ovarian is more than 100 µM; with HCT-116 colon, more than 100 µM; in the experiment on NCI-H23 lung, more than 59.8 µM; with NCI/ADR-RES ovarian, 27.1 µM.

Consider `O=C(Nc1ccc2ncccc2c1)Nc1ccc2ncccc2c1`, for which the TGI in the experiment with BT-549 breast, in the experiment on HT29 colon, with SNB-19 CNS, with SN12C renal, in the experiment with CCRF-CEM leukemia and in the experiment with MALME-3M melanoma was more than 100 µM throughout. Moreover, the TGI in the experiment with OVCAR-5 ovarian, in the experiment on HCT-116 colon, in the experiment on NCI-H23 lung and with NCI/ADR-RES ovarian was more than 100 µM each time.

The GI50 is the concentration at which growth is held to half of that of the control. By TGI is commonly meant the concentration giving total growth inhibition.

The values above are taken from PubChem BioAssay (NCI).
